# Laboratory results: patent publication EP1180991B1, “GAMBOGIC ACID DERIVATIVES AS ACTIVATORS OF CASPASES AND INDUCERS OF APOPTOSIS” (Cytovia, Inc., priority 1999, dated 2000)
# What was measured:
# [1] = system: HL-60 cells; assay: PARP cleavage, western blot (Example 98); assay type: cell-based, human; details: 2.5 µM, 2 h (Fig. 5B)
# Description: (§1) Cleavage of the enzyme poly(ADP)ribose polymerase (PARP) by caspase-3 and related proteases is considered to be one of the molecular hallmarks of caspase-mediated apoptosis. Therefore, the ability of gambogic acid to induce PARP cleavage in four different human tumor cell lines (Jurkat cells, HL-60 cells, T47D cells and PC3 cells) was determined.
# (§2) Cells were cultured in complete growth medium containing 10% FBS and treated with gambogic acid at concentrations of 2.5 µM or 5 µM for 2 to 4 h. Control cultures were treated with a drug vehicle (DMSO), or the well-characterized apoptosis inducer, staurosporine. At the end of the apoptosis induction period, the cells were harvested, washed once with PBS, quick-frozen on dry ice, and stored at -80° C. The cells were then lysed in a standard immunoblotting lysis buffer and samples of the lysates were electrophoresed on 4% to 20% gradient polyacrylamide gels. The proteins in the gels were then transferred to PVDF membranes and probed with a commercially-available rabbit polyclonal antibody to PARP.
# [2] = system: Jurkat cells; assay: PARP cleavage, western blot (Example 98); assay type: cell-based, human; details: 2.5 µM, 2 h (Fig. 5A)
# Description: as §1, §2
compound,measurement,setting,value
"CC(C)=CCC[C@]1(C)C=Cc2c(O)c3c(c(CC=C(C)C)c2O1)O[C@]12C(=C[C@@H]4C[C@H]1C(C)(C)O[C@@]2(C/C=C(/C)C(=O)O)C4=O)C3=O [Example 1, Gambogic Acid]",PARP cleavage,[1],almost complete PARP cleavage
same,PARP cleavage,[2],almost complete PARP cleavage
